Source: US9951058B2, “Compound, pharmaceutically acceptable salt or optical isomer thereof, method for preparing the same, and pharmaceutical composition for prevention or treatment of viral diseases containing same as active ingredient” (Korea Research Institute of Chemical Technology, priority 2012, dated 2018)
In brackets after ≈: the same amount, converted by molar mass.

What was measured:
[1] = test system: coxsackievirus B1 (Cox B1); assay: Multicycle cytopathic effect (CPE) reduction assay; type: cell-based; conditions: Enterovirus B, B1, 72 h, read-out: EC50 CoxB1
[2] = in vitro; conditions: human
[3] = test system: poliovirus 3 (PV3); assay: microbe, parasite or virus in culture; type: cell-based; conditions: Enterovirus C, 72 h, read-out: EC50 PV3
[4] = test system: HRV 21; assay: Cytopathic effect (CPE) inhibition assay; type: cell-based, human rhinovirus; conditions: Human rhinovirus sp., 72 h; host cell HeLa, 3 days, MEM/2% FBS, MTT assay; read-out: EC50 HRV 21
[5] = Cytotoxicity (CC50) in multicycle CPE reduction assay, MTS; conditions: human
[6] = test system: HRV 14; assay: Cytopathic effect (CPE) inhibition assay; type: cell-based, human rhinovirus; conditions: Human rhinovirus sp., HeLa, 72 h, host cell HeLa, 3 days, MEM/2% FBS, MTT assay; read-out: EC50 HRV 14
[7] = test system: coxsackievirus B3 (Cox B3); assay: Multicycle cytopathic effect (CPE) reduction assay; type: cell-based; conditions: Enterovirus B, B3, 72 h, read-out: EC50 CoxB3
[8] = test system: HRV 71; assay: Cytopathic effect (CPE) inhibition assay; type: cell-based, human rhinovirus; conditions: Human rhinovirus sp., 72 h; host cell HeLa, 3 days, MEM/2% FBS, MTT assay; read-out: EC50 HRV 71

For CC(C)c1ccc2c(c1)OC1(O)c3cccc(N)c3C(=O)C21NC(=O)C(=O)c1c[nH]c2ccccc12 (stereo not shown) [Example 10, N-(1-amino-4b-hydroxy-7-isopropyl-10-oxo-9b, 10-dihydro-4bH-indeno[1,2-b]benzofuran-9b-yl)-2-(1H-indo1-3-yl)-2-oxo acetamide], the EC50 [1] was < 0.01 µg/mL, the CC50 [2] was 4.89 µg/mL (≈ 10.2 µM) and the EC50 [3] was < 0.1 µg/mL. The EC50 [4] was > 4.89 µg/mL, the CC50 at 3 days [5] was 8.33 µg/mL (≈ 17.3 µM) and the EC50 [6] was < 0.1 µg/mL. For the same compound, the EC50 [7] was 0.014 µg/mL (≈ 0.0291 µM) and the EC50 [8] was > 4.89 µg/mL.

In the case of CC(C)c1ccc2c(c1)OC1(O)c3cccc(N)c3C(=O)C21NC(=O)C(=O)c1ccccc1 (stereo not shown) [Example 11, N-(1-amino-4b-hydroxy-7-isopropyl-10-oxo-9b, 10-dihydro-4bH-indeno[1,2-b]benzofuran-9b-yl)-2-oxo-2-phenyl acetamide], the EC50 [1] is reported as < 0.01 µg/mL, the CC50 [2] is reported as 7.82 µg/mL (≈ 17.7 µM) and the EC50 [3] is reported as < 0.1 µg/mL. The EC50 [4] was 3.13 µg/mL (≈ 7.07 µM), the CC50 at 3 days [5] was 8.72 µg/mL (≈ 19.7 µM) and the EC50 [6] was < 0.1 µg/mL. For the same compound, the EC50 [7] was < 0.01 µg/mL and the EC50 [8] was > 7.82 µg/mL.

For Cc1cc2c(cc1C)C1(NC(=O)C(=O)c3ccccc3)C(=O)c3ccccc3C1(O)O2 (stereo not shown) [Example 12, N-(4b-hydroxy-7,8-dimethyl-10-oxo-9b, 10-dihydro-4bH-indeno[1,2-b]benzofuran-9b-yl)-2-oxo-2-phenyl acetamide], the EC50 [1] was 0.015 µg/mL (≈ 0.0363 µM), the CC50 [2] was > 10 µg/mL and the EC50 [3] was 9.8 µg/mL (≈ 23.7 µM). For the same compound, the EC50 [4] was > 10 µg/mL, the CC50 at 3 days [5] was > 10 µg/mL and the EC50 [6] was 2.08 µg/mL (≈ 5.03 µM). For the same compound, the EC50 [7] was 0.064 µg/mL (≈ 0.155 µM) and the EC50 [8] was > 10 µg/mL.

Cc1cc2c(cc1C)C1(NC(=O)C(=O)c3c[nH]c4ccccc34)C(=O)c3ccccc3C1(O)O2 (stereo not shown) [Example 13, N-(4b-hydroxy-7,8-dimethyl-10-oxo-9b, 10-dihydro-9bH-indeno[1,2-b]benzofuran-9b-yl)-(1H-indo1-3-yl)-2-oxo acetamide] showed an EC50 [1] of 0.061 µg/mL (≈ 0.135 µM), a CC50 [2] of 8.41 µg/mL (≈ 18.6 µM) and an EC50 [3] of 1.98 µg/mL (≈ 4.38 µM). For the same compound, the EC50 [4] was > 8.41 µg/mL, the CC50 at 3 days [5] was 8.31 µg/mL (≈ 18.4 µM) and the EC50 [6] was 1.85 µg/mL (≈ 4.09 µM). For the same compound, the EC50 [7] was 0.13 µg/mL (≈ 0.287 µM) and the EC50 [8] was > 8.41 µg/mL.

For CC(=O)C(=O)NC12C(=O)c3ccccc3C1(O)Oc1cc(C)c(C)cc12 (stereo not shown) [Example 14, N-(4b-hydroxy-7,8-dimethyl-10-oxo-9b, 10-dihydro-4bH-indeno[1,2-b]benzofuran-9b-yl)-2-oxo propanamide], the EC50 [1] was 0.015 µg/mL (≈ 0.0427 µM), the CC50 [2] was 8.87 µg/mL (≈ 25.2 µM) and the EC50 [3] was > 8.57 µg/mL. The EC50 [4] was > 8.87 µg/mL, the CC50 at 3 days [5] was 8.57 µg/mL (≈ 24.4 µM) and the EC50 [6] was 1.82 µg/mL (≈ 5.18 µM). The EC50 [7] was 0.067 µg/mL (≈ 0.191 µM) and the EC50 [8] was > 8.87 µg/mL.

In the case of CC(C)c1ccc2c(c1)OC1(O)c3ccccc3C(=O)C21NC(=O)C(=O)c1ccccc1 (stereo not shown) [Example 15, N-(4b-hydroxy-7-isopropyl-10-oxo-9b, 10-dihydro-4bH-indeno[1,2-b]benzofuran-9b-yl)-2-oxo-2-phenyl acetamide], the EC50 [1] is reported as < 0.01 µg/mL, the CC50 [2] is reported as 8.72 µg/mL (≈ 20.4 µM) and the EC50 [3] is reported as < 1 µg/mL. The EC50 [4] was > 8.72 µg/mL, the CC50 at 3 days [5] was 8.8 µg/mL (≈ 20.6 µM) and the EC50 [6] was < 1 µg/mL. For the same compound, the EC50 [7] was < 0.01 µg/mL and the EC50 [8] was > 8.72 µg/mL.

For CC(C)c1ccc2c(c1)OC1(O)c3c(cccc3[N+](=O)[O-])C(=O)C21NC(=O)C(=O)c1ccccc1 (stereo not shown) [Example 16, N-(4b-hydroxy-7-isopropyl-4-nitro-10-oxo-9b, 10-dihydro-4bH-indeno[1,2-b]benzofuran-9b-yl)-2-oxo-2-phenyl acetamide], the EC50 [1] was 0.078 µg/mL (≈ 0.165 µM), the CC50 [2] was > 10 µg/mL and the EC50 [3] was 2.13 µg/mL (≈ 4.51 µM). For the same compound, the EC50 [4] was > 10 µg/mL, the CC50 at 3 days [5] was > 10 µg/mL and the EC50 [6] was 1.77 µg/mL (≈ 3.75 µM). For the same compound, the EC50 [7] was 0.33 µg/mL (≈ 0.698 µM) and the EC50 [8] was > 10 µg/mL.

With CSCCC(=O)C(=O)NC12C(=O)c3ccccc3C1(O)Oc1cc(C(C)C)ccc12 (stereo not shown) [Example 17, N-(4b-hydroxy-7-isopropyl-10-oxo-9b, 10-dihydro-4bH-indeno[1,2-b]benzofuran-9b-yl)-4-(methylthio)-2-oxo butanamide] the EC50 [1] was 0.033 µg/mL (≈ 0.0776 µM), the CC50 [2] was > 10 µg/mL and the EC50 [3] was 2.61 µg/mL (≈ 6.13 µM). For the same compound, the EC50 [4] was > 10 µg/mL, the CC50 at 3 days [5] was > 10 µg/mL and the EC50 [6] was 6.99 µg/mL (≈ 16.4 µM). The EC50 [7] was 0.067 µg/mL (≈ 0.157 µM) and the EC50 [8] was > 10 µg/mL.

With CC(C)c1ccc2c(c1)OC1(O)c3ccccc3C(=O)C21NC(=O)CCC(=O)N(C)C (stereo not shown) [Example 44, N1-(4b-hydroxy-7-isopropyl-10-oxo-4b, 10-dihydro-9bH-indeno[1,2-b]benzofuran-9b-yl)-N4, N4-dimethyl succinamide] the EC50 [1] was < 0.1 µg/mL, the EC50 [3] was < 10 µg/mL and the CC50 at 3 days [5] was > 10 µg/mL. The EC50 [7] was < 0.1 µg/mL.

In the case of CC(C)NC(=O)CCC(=O)NC12C(=O)c3ccccc3C1(O)Oc1cc(C(C)C)ccc12 (stereo not shown) [Example 45, N1-(4b-hydroxy-7-isopropyl-10-oxo-4b, 10-dihydro-9bH-indeno[1,2-b]benzofuran-9b-yl)-N4-isopropyl succinamide], the EC50 [1] is reported as < 0.1 µg/mL, the CC50 [2] is reported as > 10 µg/mL and the EC50 [3] is reported as < 10 µg/mL. For the same compound, the CC50 at 3 days [5] was > 10 µg/mL and the EC50 [7] was < 0.1 µg/mL.
